In patent US8952024B2, “Herbicidal pyrimidone derivatives” (E I du Pont de Nemours and Company, priority 2009, dated 2015):
Where two headings read alike, the source gives them in different places.

What was measured:
Test in all cases: Test B pre-/postemergence plant response
Format in all cases: in vivo
[1] = system: blackgrass (Alopecurus myosuroides); conditions: for pest or weed control at 31 g/ha: 31 g ai/ha; for pest or weed control at 62 g/ha: 62 g ai/ha; for pest or weed control at 125 g/ha: 125 g ai/ha
Outline: (§1)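 Plants treated either at seeding (loam/sand soil) or postemergence at 2 to 18 cm height, using a surfactant-containing non-phytotoxic solvent formulation. Evaluation was visual after 13 to 15 days, 0 to 100 scale relative to controls.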

[2] = system: morningglory (Ipomoea coccinea); conditions: for pest or weed control at 125 g/ha: 125 g ai/ha
Outline: as §1

[3] = system: downy bromegrass (Bromus tectorum); conditions: for pest or weed control at 31 g/ha: 31 g ai/ha; for pest or weed control at 62 g/ha: 62 g ai/ha; for pest or weed control at 125 g/ha: 125 g ai/ha
Outline: as §1

[4] = system: pigweed (Amaranthus retroflexus); conditions: for pest or weed control at 31 g/ha: 31 g ai/ha; for pest or weed control at 62 g/ha: 62 g ai/ha; for pest or weed control at 125 g/ha: 125 g ai/ha
Outline: as §1

wild oat (Avena fatua) = conditions: for pest or weed control at 31 g/ha: 31 g ai/ha; for pest or weed control at 62 g/ha: 62 g ai/ha; for pest or weed control at 125 g/ha: 125 g ai/ha
Outline: as §1

[5] = system: Surinam grass (Brachiaria decumbens)
Outline: as §1

[6] = Alopecurus myosuroides, pre-emergence, 360 h, Preemergence, scale 0 to 100 (0 no effect, 100 complete control), read-out: Plant response rating, Blackgrass
[7] = Preemergence, 250 g ai/ha, 0 to 100 scale
[8] = Bromus tectorum, pre-emergence, Preemergence, scale 0 to 100 (0 no effect, 100 complete control), read-out: Plant response rating, Bromegrass, Downy
[9] = Amaranthus retroflexus, pre-emergence, Preemergence, scale 0 to 100 (0 no effect, 100 complete control), read-out: Plant response rating, Pigweed
[10] = Avena fatua, pre-emergence, Preemergence, scale 0 to 100 (0 no effect, 100 complete control), read-out: Plant response rating, Oat, Wild

Compound `COCCn1c(-c2cc(F)cc(F)c2)ncc(C(=O)C2=C(O)C3CCC(C3)C2=O)c1=O` (stereo not drawn) [Compound 243, 2-(3,5-difluorophenyl)-5-[(2-hydroxy-4-oxobicyclo[3.2.1]oct-2-en-3-yl)carbonyl]-3-(2-methoxyethyl)-4(3H)-pyrimidinone] has a pest or weed control at 31 g/ha ([1]; Alopecurus myosuroides, post-emergence, 360 h, Postemergence, 0 to 100 scale (0 no effect, 100 complete control), read-out: Plant response rating, Blackgrass) of 60%, a pest or weed control at 62 g/ha ([1]; Alopecurus myosuroides, post-emergence, 360 h, Postemergence, scale 0 to 100 (0 no effect, 100 complete control), read-out: Plant response rating, Blackgrass) of 80% and a pest or weed control at 125 g/ha ([1]; Alopecurus myosuroides, post-emergence, 360 h, Postemergence, scale 0 (no effect) to 100 (complete control), 13 to 15 days, read-out: Plant response rating, Blackgrass) of 85%. It also gave a pest or weed control at 250 g/ha ([1]; Alopecurus myosuroides, post-emergence, 360 h, Postemergence, 250 g ai/ha, scale 0 to 100 (0 no effect, 100 complete control), 13 to 15 days, read-out: Plant response rating, Blackgrass) of 98%, a pest or weed control at 31 g/ha [1, 6] of 0% and a pest or weed control at 62 g/ha [1, 6] of 10%. The pest or weed control at 125 g/ha ([1]; Alopecurus myosuroides, pre-emergence, 360 h, Preemergence, scale 0 to 100, 0 no effect, 100 complete control, read-out: Plant response rating, Blackgrass) was 70%, the “Blackgrass plant response rating” value [1, 7] was 95 and the pest or weed control at 31 g/ha ([2]; Ipomoea, post-emergence, Postemergence, 31 g ai/ha, 0 to 100 scale (0 no effect, 100 complete control), read-out: Plant response rating, Morningglory) was 95%. It also gave a pest or weed control at 62 g/ha ([2]; Ipomoea, post-emergence, Postemergence, 62 g ai/ha, scale 0 to 100 (0 no effect, 100 complete control), read-out: Plant response rating, Morningglory) of 100%, a pest or weed control at 125 g/ha ([2]; Ipomoea, post-emergence, Postemergence, scale 0 (no effect) to 100 (complete control), 13 to 15 days, read-out: Plant response rating, Morningglory) of 100% and a pest or weed control at 250 g/ha ([2]; Ipomoea, post-emergence, Postemergence, 250 g ai/ha, scale 0 to 100 (0 no effect, 100 complete control), 13 to 15 days, read-out: Plant response rating, Morningglory) of 100%. The pest or weed control at 125 g/ha ([2]; Ipomoea, pre-emergence, Preemergence, scale 0 to 100, 0 no effect, 100 complete control, read-out: Plant response rating, Morningglory) was 98%, the “Morningglory plant response rating” value [2, 7] was 100 and the pest or weed control at 31 g/ha ([3]; Bromus tectorum, post-emergence, Postemergence, 0 to 100 scale (0 no effect, 100 complete control), read-out: Plant response rating, Bromegrass, Downy) was 50%. It also gave a pest or weed control at 62 g/ha ([3]; Bromus tectorum, post-emergence, Postemergence, scale 0 to 100 (0 no effect, 100 complete control), read-out: Plant response rating, Bromegrass, Downy) of 70%, a pest or weed control at 125 g/ha ([3]; Bromus tectorum, post-emergence, Postemergence, scale 0 (no effect) to 100 (complete control), 13 to 15 days, read-out: Plant response rating, Bromegrass, Downy) of 95% and a pest or weed control at 250 g/ha ([3]; Bromus tectorum, post-emergence, Postemergence, 250 g ai/ha, scale 0 to 100 (0 no effect, 100 complete control), 13 to 15 days, read-out: Plant response rating, Bromegrass, Downy) of 100%. The pest or weed control at 31 g/ha [3, 8] was 0%, the pest or weed control at 62 g/ha [3, 8] was 40% and the pest or weed control at 125 g/ha ([3]; Bromus tectorum, pre-emergence, Preemergence, scale 0 to 100, 0 no effect, 100 complete control, read-out: Plant response rating, Bromegrass, Downy) was 60%. For the same compound, the “Bromegrass, Downy plant response rating” value [3, 7] was 70, the pest or weed control at 31 g/ha ([4]; Amaranthus retroflexus, post-emergence, Postemergence, 0 to 100 scale (0 no effect, 100 complete control), read-out: Plant response rating, Pigweed) was 85% and the pest or weed control at 62 g/ha ([4]; Amaranthus retroflexus, post-emergence, Postemergence, scale 0 to 100 (0 no effect, 100 complete control), read-out: Plant response rating, Pigweed) was 100%. For the same compound, the pest or weed control at 125 g/ha ([4]; Amaranthus retroflexus, post-emergence, Postemergence, scale 0 (no effect) to 100 (complete control), 13 to 15 days, read-out: Plant response rating, Pigweed) was 100%, the pest or weed control at 250 g/ha ([4]; Amaranthus retroflexus, post-emergence, Postemergence, 250 g ai/ha, scale 0 to 100 (0 no effect, 100 complete control), 13 to 15 days, read-out: Plant response rating, Pigweed) was 100% and the pest or weed control at 31 g/ha [4, 9] was 75%. The pest or weed control at 62 g/ha [4, 9] was 98%, the pest or weed control at 125 g/ha ([4]; Amaranthus retroflexus, pre-emergence, Preemergence, scale 0 to 100, 0 no effect, 100 complete control, read-out: Plant response rating, Pigweed) was 100% and the “Pigweed plant response rating” value [4, 7] was 100. The pest or weed control at 31 g/ha (wild oat (Avena fatua); Avena fatua, post-emergence, Postemergence, 0 to 100 scale (0 no effect, 100 complete control), read-out: Plant response rating, Oat, Wild) was 80%, the pest or weed control at 62 g/ha (wild oat (Avena fatua); Avena fatua, post-emergence, Postemergence, scale 0 to 100 (0 no effect, 100 complete control), read-out: Plant response rating, Oat, Wild) was 85% and the pest or weed control at 125 g/ha (wild oat (Avena fatua); Avena fatua, post-emergence, Postemergence, scale 0 (no effect) to 100 (complete control), 13 to 15 days, read-out: Plant response rating, Oat, Wild) was 85%. The pest or weed control at 250 g/ha (wild oat (Avena fatua); Avena fatua, post-emergence, Postemergence, 250 g ai/ha, scale 0 to 100 (0 no effect, 100 complete control), 13 to 15 days, read-out: Plant response rating, Oat, Wild) was 100%, the pest or weed control at 31 g/ha (wild oat (Avena fatua); [10]) was 30% and the pest or weed control at 62 g/ha (wild oat (Avena fatua); [10]) was 85%. For the same compound, the pest or weed control at 125 g/ha (wild oat (Avena fatua); Avena fatua, pre-emergence, Preemergence, scale 0 to 100, 0 no effect, 100 complete control, read-out: Plant response rating, Oat, Wild) was 85%, the “Oat, Wild plant response rating” value (wild oat (Avena fatua); [7]) was 90 and the “Surinam Grass plant response rating” value [5, 7] was 100. It also gave a pest or weed control at 31 g/ha ([5]; Urochloa decumbens, post-emergence, Postemergence, 31 g ai/ha, 0 to 100 scale (0 no effect, 100 complete control), read-out: Plant response rating, Surinam Grass) of 90%, a pest or weed control at 62 g/ha ([5]; Urochloa decumbens, post-emergence, Postemergence, 62 g ai/ha, scale 0 to 100 (0 no effect, 100 complete control), read-out: Plant response rating, Surinam Grass) of 95% and a pest or weed control at 125 g/ha ([5]; Urochloa decumbens, post-emergence, Postemergence, 125 g ai/ha, scale 0 (no effect) to 100 (complete control), 13 to 15 days, read-out: Plant response rating, Surinam Grass) of 100%.
